Values of other authors as cited in US20040063806A1, “Antimicrobial polyalphaolefin composition” (priority 2000, published 2004).
Where two headings read alike, the source gives them in different places.

What was measured:
Pityrosporum ovalae = Pityrosporum ovalae ATCC 14521, medium M
Corynebacterium xerosis = Corynebacterium xerosis ATCC 373, medium M-H
Aspergillus fumigatus = Aspergillus fumigatus ATCC 9197, medium SMA
Salmonella typhimurium = Salmonella typhimurium NCTC 5710, medium NA
Clostridium difficile = Clostridium difficile ATCC 9684, medium BHI-A
Candida stellatoidae = settings: origin A, medium SMA
Klebsiella oxytoca = Klebsiella oxytoca ATCC 43165, medium M-H
Sarcina lutee = Sarcina lutee NCTC 196, medium BHI-A
Actinomyces bovis = settings: origin A, medium NA
Clostridium tetani = Clostridium tetani NCTC 9571, medium EA
Bacteroides fragilis = Bacteroides fragilis ATCC 23745, medium M-H
Epidermophyton floccosum = Epidermophyton floccosum ATCC 10227, medium SMA
Clostridium perfringens = Clostridium perfringens NCTC 3110, medium EA
Staphylococcus hominis = Staphylococcus hominis ATCC 27844, medium M-H
Sporosarcina urea = Sporosarcina urea ATCC 6473, medium BHI-A
Enterococcus arabinosus = Enterococcus arabinosus ATCC 8014, medium MACA
Bacillus cereus = settings: origin A, medium NA
Lactobacillus fermenti = Lactobacillus fermenti ATCC 707, medium MACA
Actinomyces naeslundii = settings: origin A, medium NA
Klebsiella edwardsii = Klebsiella edwardsii NCTC 7242, medium NA
Pasteurella septica = Pasteurella septica NCTC 948, medium NA
Bacillus megatherium = settings: origin A, medium NA
Corynebacterium acnes = settings: Corynebacterium acnes* ATCC 6919, medium BHI-A
[1] = tested on: Corynebacterium minutissimum; settings: Corynebacterium minutissimum ATCC 23348, medium BHI-A
Shigella sonnei = Shigella sonnei NCTC 7240, medium NA
[2] = tested on: Mycobacterium tuberculosis; settings: origin A, medium YA
[3] = tested on: Pseudomonas fluorescencens; settings: Pseudomonas fluorescencens NCTC 4755, medium NA
Streptococcus coelicolor = settings: origin A, medium BHI-A
Loefferella pseudomallei = Loefferella pseudomallei NCIB 10230, medium NA
Serratia marcescens = Serratia marcescens ATCC 14756, medium M-H
Sarcina urea = Sarcina urea ATCC 6473, medium BHI-A
Candida utilis = settings: origin A, medium SMA
Aerobacter arogenes = Aerobacter arogenes CITM 413, medium NA
Brucella abortus = Brucella abortus NCTC 8226, medium BR.A.A.
Salmonella paratyphi A = Salmonella paratyphi A NCTC 5322, medium NA
Actinomyces israelii = Actinomyces israelii NCTC 8047, medium NA

Question: What does the source list for `Oc1cc(Cl)ccc1Oc1ccc(Cl)cc1Cl` [IRGAGUARD B 1000, 2,4,4′-trichloro-2′-hydroxydiphenyl ether]?
Answer: Microbiostatic effect (Pityrosporum ovalae): >1000 ppm; Microbiostatic effect (Candida tropicalis; Candida tropicalis DSM 1346, medium M-H): 10 ppm; Microbiostatic effect (Candida tropicalis; Candida tropicalis, origin A, medium SMA): 10 ppm; Microbiostatic effect (Corynebacterium xerosis): 5.0 ppm; Microbiostatic effect (Aspergillus fumigatus): 10 ppm; Microbiostatic effect (Salmonella typhimurium): 0.3 ppm; Microbiostatic effect (Clostridium difficile): 5.0 ppm; Microbiostatic effect (Candida stellatoidae): 10 ppm; Microbiostatic effect (Klebsiella oxytoca): 1.0 ppm; Microbiostatic effect (Sarcina lutee): 3.0 ppm; Microbiostatic effect (Actinomyces bovis): 1.0 ppm; Microbiostatic effect (Clostridium tetani): 3.0 ppm; Microbiostatic effect (Bacteroides fragilis): 2.0 ppm; Microbiostatic effect (Epidermophyton floccosum): 1-10 ppm; Microbiostatic effect (Clostridium perfringens): 10.0 ppm; Microbiostatic effect (Staphylococcus hominis): 1.0 ppm; Microbiostatic effect (Sporosarcina urea): 0.1 ppm; Microbiostatic effect (Enterococcus arabinosus): 33.0 ppm; Microbiostatic effect (Bacillus cereus): 3.0 ppm; Microbiostatic effect (Lactobacillus fermenti): 33.0 ppm; Microbiostatic effect (Actinomyces naeslundii): 1.0 ppm; Microbiostatic effect (Klebsiella edwardsii): 0.3 ppm; Microbiostatic effect (Enterococcus faecalis; Enterococcus faecalis ATCC 6055, medium M-H): 5.0 ppm; Microbiostatic effect (Enterococcus faecalis; Enterococcus faecalis ATCC 29212, medium M-H): 4.0 ppm; Microbiostatic effect (Enterococcus faecalis; Enterococcus faecalis NCTC 12201, medium M-H, Varicomycin resistant): 5.0 ppm; Microbiostatic effect (Enterococcus faecalis; Enterococcus faecalis NCTC 12203, medium M-H, Varicomycin resistant): 5.0 ppm; Microbiostatic effect (Pasteurella septica): 0.1 ppm; Microbiostatic effect (Bacillus megatherium): 3.0 ppm; Microbiostatic effect (Corynebacterium acnes): 3.0 ppm; Microbiostatic effect [1]: 3.0 ppm; Microbiostatic effect (Shigella sonnei): 0.1 ppm; Microbiostatic effect [2]: 100.0 ppm; Microbiostatic effect [3]: >100 ppm; Microbiostatic effect (Streptococcus coelicolor): 1.0 ppm; Microbiostatic effect (Loefferella pseudomallei): 1.0 ppm; Microbiostatic effect (Serratia marcescens): >512 ppm; Microbiostatic effect (Sarcina urea): 0.1 ppm; Microbiostatic effect (Candida utilis): 33 ppm; Microbiostatic effect (Aerobacter arogenes): 1.0 ppm; Microbiostatic effect (Escherichia coli; Escheria coli ATCC 8196, medium M-H): 0.02 ppm; Microbiostatic effect (Escherichia coli; Escherichia coli ATCC 4388, medium M-H, Serotype 0157): 0.1 ppm; Microbiostatic effect (Escherichia coli; Escherichia coli ATCC 9661, medium NA): 0.3 ppm; Microbiostatic effect (Escherichia coli; Escherichia coli ATCC 10536, medium BHI): 0.5 ppm; Microbiostatic effect (Escherichia coli; Escherichia coli ATCC 11229, medium M-H): 0.5 ppm; Microbiostatic effect (Escherichia coli; Escherichia coli ATCC 25922, medium M-H): 0.25 ppm; Microbiostatic effect (Escherichia coli; Escherichia coli ATCC 35150, medium M-H, Serotype 0157): 0.2 ppm; Microbiostatic effect (Escherichia coli; Escherichia coli ATCC 43889, medium M-H, Serotype 0157): 0.2 ppm; Microbiostatic effect (Escherichia coli; Escherichia coli ATCC 43890, medium M-H, Serotype 0157): 0.2 ppm; Microbiostatic effect (Escherichia coli; Escherichia coli NCTC 9663, medium NA): 0.3 ppm; Microbiostatic effect (Escherichia coli; Escherichia coli NCTC 11186, medium M-H, Tobramicin resistant): 0.5 ppm; Microbiostatic effect (Brucella abortus): 0.1 ppm; Microbiostatic effect (Salmonella paratyphi A): 0.3 ppm; Microbiostatic effect (Actinomyces israelii): 1.0 ppm
